Legend:
[1] = tested on: keratin-filled utriculi of the rhino mouse; assay: Anti-keratinizing activity in the rhino mouse; format: in vivo
Source text: (A) The antikeratinizing activity can be determined on the rhino mouse model according to the following procedure. The skin of the rhino mouse is characterized by the presence of keratin-filled utriculi of the epidermis and subcutaneous cysts, both of which are derived from hair follicles. The administration of retinoids leads to a hyperproliferation of the epidermis and of the epithelial lining of the utriculi. The thickening of the epidermis and the reduction in the size of the utriculi lead to a normalization of the altered structure of the epithelial layer. The daily topical application of 0.1 ml/cm^2 skin of the rhino mouse of a 3% acetone solution of an active test compound over a period of 3 weeks or the thrice weekly oral administration in arachis oil over a period of weeks leads to a significant proliferation of the epidermis and a striking reduction of the keratin-filled utriculi.

[2] = tested on: chemically-induced breast tumours; assay: Prophylaxis of chemically-induced breast tumours (dimethylbenz(a)anthracene); format: in vivo, Female Sprague-Dawley rats; conditions: 11 weeks
Procedure: (B) The activity in the prevention of chemically-induced breast tumours can be determined according to the following procedure. Female Sprague-Dawley rats are kept under temperature-controlled and light-controlled conditions, with free access to drinking water and feed. At the age of 50 days 15 mg of dimethylbenz(a)anthracene disolved in arachis oil are administered to each rat by means of a probang. The treatment with the test compounds begins 1 day after the administration of the carcinogen. The body weights of the test animals are recorded and the tumours are palpated weekly and measured with a vernier caliper. The volumes are calculated according to the formula [formula] in which D is the larger diameter of the tumour ellipsoid and d is the smaller diameter of the tumour ellipsoid. After 11 weeks the test is terminated and evaluated. In this test there are used in addition to 30 control animals, which receive exclusively normal feed the following two groups of test animals:
1. 33 rats to which are administered daily 30 mg/kg of test compound mixed with the feed.
2. 36 rats to which are administered daily 90 mg/kg of test compound mixed with the feed.

[3] = tested on: squamous metaplasia of the vaginal epithelium; assay: Antimetaplastic activity in the rat (hormone-induced squamous metaplasia of the vaginal epithelium); format: in vivo, Female Holtzmann rats; conditions: oral; all-trans-retinoic acid = 1; from average effective dosages (Behrens and Karber)
Source text: (D) The antimetaplastic activity can also be determined in rats according to the following method. Female Holtzmann rats weighing approximately 100 g are ovarectomized under Thiogenal narcosis after an adaptation period of 8 days and are used in the test after a further 14 days. In each case two animals are placed in a cage with free access to feed which contains approximately 2000 IU of vitamin A determined analytically. Prior to the oral administration of the test compound the animals are treated subcutaneously each day on 6 successive days with 1 μg of estradiol benzoate and 250 μg of testosterone propionate dissolved in 0.1 ml of sesame oil. […] 2 days after the oral administration of the test substance the result of the reaction is again read off on the vaginal epithelium. The area method according to Behrens and Karber is employed to calculate the average effective dosages.

[4] = tested on: testosterone-stimulated sebum secretion; assay: Inhibition of sebum production in the rat; format: in vivo, rat (castrated male); conditions: 100 μg/rat p.o., daily for 14 days
Procedure: (E) The activity of the compounds I on sebum secretion in rats was determined according to the following procedure. Male rats of approximately 50-60 g body weight were castrated at the age of 21-22 days. One week after this operation the rats were washed in a cleansing solution in order to remove sebum which was excreted prior to the test period. Only the carrier materials used were administered to one group of rats. A further group of rats also simultaneously received 100 μg of testosterone propionate in 0.2 ml of sesame oil per rat and day. To a further group of rats there were administered daily per rat 100 μg of testosterone propionate in 0.2 ml of sesame oil subcutaneously and the test compounds in various dosages in 0.2 ml of propylene glycol orally. The rats were thus-treated for 14 days. On the 15th day the sebum from the skin surface and the pelt was removed by immersing the entire body of the test animals in a determined volume of acetone and bathing therein for 2 minutes. An aliquot of the solvent bath was evaporated and the solid residue was determined gravimetrically. The inhibition of the testosterone-stimulated increase in the serum secretion in comparison to the corresponding values from rats treated only with testosterone propionate was used as the measurement for the activity.

[5] = tested on: transplantable chondrosarcoma of the rat; assay: Activity on transplantable chondrosarcoma of the rat; format: in vivo, rat (albino rats); conditions: five times per week for 24 days
Procedure: (C) Furthermore, the activity on tumours can be determined on the transplantable chondrosarcoma of the rat according to the following method. The solid tumour of a donor animal is finely minced and suspended in phosphate buffer/sodium chloride solution. 0.5 ml of the 30% tumour suspension is implanted subcutaneously into albino rats.
The transplanted rats are divided into test groups of in each case 8 animals. The test compounds are suspended in arachis oil and administered orally five times per week for 24 days. The tumours are excised and weighed on day 24. The results are expressed in the quotient C/T which is calculated as follows: [formula]

In the case of C/C(=C\c1ccc(F)cc1)c1ccc2c(c1)C(C)(C)CCC2(C)C [a, (E)-6-(p-fluoro-α-methylstyryl)-1,2,3,4-tetrahydro-1,1,4,4-tetramethylnaphthalene], the “Diameter of the utriculus” value ([1]; 400 mg/kg p.o.) is reported as 117 μm, the “Reduction (of the diameter of the utriculus)” value (from here on “Reduction”) ([1]; 400 mg/kg p.o.) is reported as 21% and the “Average number of tumours per rat” value ([2]; 30 mg/kg p.o. daily in feed) is reported as 47 % of controls. For the same molecule, the “Average tumour volume per rat in mm^3 [% of controls]” value ([2]; 30 mg/kg p.o. daily in feed) was 22 % of controls, the Rats with tumours ([2]; 30 mg/kg p.o. daily in feed) was 72 % of controls and the “Average number of tumours per rat” value ([2]; 90 mg/kg p.o. daily in feed) was 42 % of controls. For the same molecule, the “Average tumour volume per rat in mm^3 [% of controls]” value ([2]; 90 mg/kg p.o. daily in feed) was 22 % of controls, the Rats with tumours ([2]; 90 mg/kg p.o. daily in feed) was 69 % of controls and the Relative activity [3] was 0.87. For the same molecule, the “Inhibition of testosterone-stimulated sebum secretion” value (“Inhibition” below) [4] was 67%.

Molecule CC1=C(/C=C/C(C)=C/C=C/C(C)=C/C(=O)O)C(C)(C)CCC1 [all-Trans-retinoic acid, reference compound] has a Relative activity [3] of 1.

C/C(=C\c1ccc(Br)cc1)c1ccc2c(c1)C(C)(C)CCC2(C)C [b, (E)6-(p-Bromo-methylstyryl)-1,2,3,4-tetrahydro-1,1,4,4-tetramethylnaphthaene] was tested, and the “Quotient C/T of tumour weight of the untreated control animals and of the treated animals” value (“Quotient C/T” below) ([5]; 120 mg/kg p.o.) was 1.6, the “Diameter of the utriculus” value ([1]; 400 mg/kg p.o.) was 131 μm and the “Reduction” value ([1]; 400 mg/kg p.o.) was 19%. For the same molecule, the “Average number of tumours per rat” value ([2]; 30 mg/kg p.o. daily in feed) was 87 % of controls, the “Average tumour volume per rat in mm^3 [% of controls]” value ([2]; 30 mg/kg p.o. daily in feed) was 90 % of controls and the Rats with tumours ([2]; 30 mg/kg p.o. daily in feed) was 106 % of controls. For the same molecule, the “Average number of tumours per rat” value ([2]; 90 mg/kg p.o. daily in feed) was 87 % of controls, the “Average tumour volume per rat in mm^3 [% of controls]” value ([2]; 90 mg/kg p.o. daily in feed) was 43 % of controls and the Rats with tumours ([2]; 90 mg/kg p.o. daily in feed) was 99 % of controls. For the same molecule, the Relative activity [3] was 0.77 and the “Inhibition” value [4] was 65%.

With COc1ccc(/C=C(\C)c2ccc3c(c2)C(C)(C)CCC3(C)C)cc1 [c, 1,2,3 4-tetrahydro-6-[(E)-p-methoxy-α-methylstyryl]-1,1,4,4-tetramethylnaphthalene] the “Quotient C/T” value ([5]; 40 mg/kg p.o.) was 2.0, the “Quotient C/T” value ([5]; 120 mg/kg p.o.) was 24.0 and the “Diameter of the utriculus” value ([1]; 133 mg/kg p.o.) was 91 μm. The “Reduction” value ([1]; 133 mg/kg p.o.) was 27%, the “Diameter of the utriculus” value ([1]; 400 mg/kg p.o.) was 61 μm and the “Reduction” value ([1]; 400 mg/kg p.o.) was 51%. The “Average number of tumours per rat” value ([2]; 30 mg/kg p.o. daily in feed) was 56 % of controls, the “Average tumour volume per rat in mm^3 [% of controls]” value ([2]; 30 mg/kg p.o. daily in feed) was 78 % of controls and the Rats with tumours ([2]; 30 mg/kg p.o. daily in feed) was 92 % of controls. For the same molecule, the “Average number of tumours per rat” value ([2]; 90 mg/kg p.o. daily in feed) was 43 % of controls, the “Average tumour volume per rat in mm^3 [% of controls]” value ([2]; 90 mg/kg p.o. daily in feed) was 32 % of controls and the Rats with tumours ([2]; 90 mg/kg p.o. daily in feed) was 85 % of controls. For the same molecule, the Relative activity [3] was 1.04.

C/C(=C\c1ccccc1)c1ccc2c(c1)C(C)(C)CC2(C)C [d, 1,1,3,3-tetramethyl-5-[(E)-α-methylstyryl]indane] was tested, and the “Diameter of the utriculus” value ([1]; 133 mg/kg p.o.) was 125 μm and the “Reduction” value ([1]; 133 mg/kg p.o.) was 27%.

In the case of C/C(=C\c1ccc(I)cc1)c1ccc2c(c1)C(C)(C)CCC2(C)C [e, (E)-6-[p-iodo-α-methylstyryl]-1,2,3,4-tetrahydro-1,1,4,4-tetramethylnaphthalene], the “Inhibition” value [4] is reported as 71%.

C/C(=C\c1ccc(Cl)cc1)c1ccc2c(c1)C(C)(C)CCC2(C)C [f, (E)-6-[p-chloro-α-methylstyryl]-1,2,3,4-tetrahydro-1,1,4,4-tetramethylnaphthalene] was tested, and the “Quotient C/T” value ([5]; 120 mg/kg p.o.) was 1.6.

In the case of CCCCCCCCc1cc2c(cc1C(C)=Cc1ccccc1)C(C)(C)CCC2(C)C [g, 1,2,3,4-tetrahydro-1,1,4,4-tetramethyl-6-(α-methylstyryl)-7-octylnaphthalene], the “Inhibition” value [4] is reported as 71%.

From patent US4990703A, “Novel tetrahydronaphthalene and indane derivatives” (Hoffmann-La Roche Inc., priority 1989, dated 1991)
